{"source": "paper PMC4783973", "about": "“Synthetic Human TLR9-LRR11 Peptide Attenuates TLR9 Signaling by Binding to and thus Decreasing Internalization of CpG Oligodeoxynucleotides” (International Journal of Molecular Sciences, 2016)", "key": {"[1]": {"system": "IκBα and ERK1/2", "conditions": "LPS-induced; ref [22]; cited from earlier work", "description": "(§1) NF-κB is one of the most important inflammatory switches that comprise a series of transcription factors that regulate the expressions of various proinflammatory cytokines (IL-1, IL-6, IL-8 and TNF-α). NF-κB activation is depended on the degradation and phosphorylation of IκBα [12]."}, "[2]": {"system": "LPS-induced cytokine release", "conditions": "by decreasing both IκBα and ERK1/2 phosphorylation; ref [22]; cited from earlier work"}, "[3]": {"system": "RAW264.7 cells", "assay": "FAM-2006 internalization within RAW264.7 cells, laser confocal scanning", "type": "cell-based", "conditions": "peptide 4.5 μM preincubated with FAM-2006 1.5 μM; 30 min; n = 100", "description": "Figure 5 Synthetic peptide (SP) inhibited ODN2006 internalization, as assessed using laser confocal scanning (Scale bar = 20 μm). RAW264.7 cells (1 × 10^6 cells) grown on 2-cm glass bottom dishes were treated with normal medium, 1.5 μM of FAM-labeled ODN2006 (FAM-2006) that had been preincubated with SP (0, 0.5, 1.5 or 4.5 μM) or unrelated peptide (URP; 4.5 μM) at 37 °C for 15 min. After treatment for 30 min, cells were washed with warm phosphate buffered saline (PBS) and fixed with 4% (m/v) paraformaldehyde, then stained with DAPI (4′,6-diamidino-2-phenylindole) (blue). The intracellular FAM-2006 (green) was observed using a laser confocal microscope (A); Mean fluorescence intensity (MFI) values (B) and the percentages of cells with FAM-2006 dots (green fluorescence) (C) were calculated by the ZENlite 2012 software (n = 100). “**”, p < 0.01; “#”, p > 0.05 vs. FAM-2006 alone.\nThe RAW264.7 cell line was purchased from American Type Culture Collection (ATCC, Manassas, VA, USA). Cells were cultured in DMEM (high glucose) medium containing 10% FCS in a 37 °C humidified atmosphere with 5% CO2. Cells diluted with 0.4% trypan blue in phosphate-buffered saline (PBS, 0.1 mM, pH 7.2–7.4) were counted using a hemocytometer. […]"}, "[4]": {"system": "RAW264.7 cells", "assay": "TNF-α and IL-6 release from RAW264.7 cells, both cytokines stated together (ELISA)", "type": "cell-based, mouse", "conditions": "peptide alone, without CpG ODN; 6 h", "description": "Figure 1 Synthetic peptide (SP) decreased TNF-α and IL-6 release from RAW264.7 cells treated with CpG oligodeoxynucleotides (CpG ODN). RAW264.7 cells (4.0 × 10^5 cells) grown in 48-well plates were treated with 1.5 μM of ODN2006 or ODN107 preincubated with SP (0, 0.5, 1.5, or 4.5 μM) or unrelated peptide (URP) (4.5 μM) at 37 °C for 15 min. After incubation for 6 h, the supernatants were collected to detect TNF-α (A) and IL-6 (B) using enzyme-linked immunosorbent assay (ELISA) kits. Data from one of three independent experiments are shown (n = 4). “*”, p < 0.05 vs. ODN2006 or ODN107; “**”, p < 0.01 vs. ODN2006 or ODN107; “#”, p > 0.05 vs. ODN2006 or ODN107.\nExperiments were performed as described in Figure 1. The concentrations of ODN2006, LPS, PAM3 and SP were 1.5 μM, 20 ng/mL, 5 μg/mL and 1.5 μM, respectively. Data from one of three independent experiments are shown (n = 3).\n(§2) The RAW264.7 cell line was purchased from American Type Culture Collection (ATCC, Manassas, VA, USA). Cells were cultured in DMEM (high glucose) medium containing 10% FCS in a 37 °C humidified atmosphere with 5% CO2. Cells diluted with 0.4% trypan blue in phosphate-buffered saline (PBS, 0.1 mM, pH 7.2–7.4) were counted using a hemocytometer.\nRAW264.7 cells (4.0 × 10^5 cells) were incubated in 48-well plates for 4 h, and supernatants were replaced with 0.4 mL of serum-free DMEM medium containing 1.5 μM of ODN2006 or ODN107, which had been preincubated with 0, 0.5, 1.5 or 4.5 μM of SP or 4.5 μM of URP at 37 °C for 15 min. After incubation for 6 h, the supernatants were collected to detect TNF-α and IL-6 concentrations using corresponding ELISA kits (eBioscience)."}, "[5]": {"system": "ODN2006", "assay": "IAsys biosensor binding to immobilized biotinylated ODN2006", "conditions": "IAsys Plus biosensor; peptide 50 μM", "description": "Figure 8 Synthetic peptide (SP) specifically binds ODN2006. (A) Binding curves generated by the IAsys biosensor. Biotinylated ODN2006 was immobilized on the surface of a streptavidin-coated cuvette. A series of concentration of SP (3.1, 6.3, 12.5, 25 or 50 μM) or unrelated peptide (URP) (50 μM) were added separately into the cuvette to generate the binding curves. Data were analyzed using FASTplot, and the dissociation equilibrium constant (KD) of SP was calculated using FASTfit; (B) Binding curves generated by the Biacore biosensor. Biotinylated ODN2006 was immobilized on a streptavidin-coated chip, and then a series of concentrations of SP (0.63, 1.25, 2.5, 5 or 10 μM) or URP (10 μM) were loaded separately to generate the binding curves. Data analysis and KD calculation were performed using the BIAevaluation software.\nThe affinity assay was firstly carried out using an IAsys Plus affinity biosensor (Thermo Labsystem, Altrincham, Cheshire, UK), according to our previous report. Biotinylated ODN2006 was immobilized on the surface of a streptavidin-coated cuvette according to the user manual. […] Binding curves were analyzed and visualized using FASTplot (Thermo), and the dissociation equilibrium constant (KD) of SP with ODN2006 was calculated using FASTfit (Thermo)."}, "[6]": {"system": "NF-κB p65 subunit", "assay": "NF-κB activity assay, p65 subunit in nuclear extract of RAW264.7 cells (Trans^AM ELISA)", "type": "cell-based", "conditions": "peptide alone 4.5 μM; 4 h; n = 3", "description": "Figure 3 Synthetic peptide (SP) inhibited NF-κB activation induced by CpG oligodeoxynucleotides (CpG ODN) in RAW264.7 cells. RAW264.7 cells (5.0 × 10^6 cells) grown in six-well plates were treated with 1.5 μM of ODN2006 (A) or ODN107 (B) preincubated with SP (0, 0.5, 1.5, or 4.5 μM) or unrelated peptide (URP) (4.5 μM) at 37 °C for 15 min. After incubation for 4 h, the cells were collected to extract nuclear proteins. The p65 subunit was detected using enzyme-linked immunosorbent assay (ELISA) kits. Data from one of three independent experiments are shown (n = 3). “*”, p < 0.05 vs. ODN2006 or ODN107; “**”, p < 0.01 vs. ODN2006 or ODN107; “#”, p > 0.05 vs. ODN2006 or ODN107.\nas §2\nRAW264.7 cells (5.0 × 10^6 cells) were placed in six-well plates for 4 h, and the supernatants were then replaced with fresh medium containing 1.5 μM of ODN2006 or ODN107 that had been preincubated with SP (0, 0.5, 1.5, or 4.5 μM) or URP (4.5 μM) at 37 °C for 15 min. After incubation for 4 h, the cells were collected to extract nuclear proteins. Equal amounts of each sample were used to detect the DNA binding activity of the NF-κB p65 subunit using Trans^AM NF-κB ELISA kits (Active Motif), according to the manufacturer’s instructions."}, "[7]": {"system": "IκBα phosphorylation and NF-κB activation", "conditions": "ref [19],[20]; cited from earlier work", "description": "as §1"}, "[8]": {"system": "CpG ODN-induced cytokine release", "conditions": "ref [19],[20]; cited from earlier work", "description": "CpG ODN-induced diseases, such as sepsis and some autoimmune disorders, are triggered by uncontrolled release of proinflammatory cytokines, e.g., TNF-α and IL-6 [18]. […] Herein, we firstly evaluated the inhibitory effect of SP on CpG ODN-induced cytokine release in the cellular tests. Tw ... || NF-κB is one of the most important inflammatory switches that comprise a series of transcription factors that regulate the expressions of various proinflammatory cytokines (IL-1, IL-6, IL-8 and TNF-α). NF-κB activation is depended on the degradation and phosphorylation of IκBα [12]."}}}
{"compound": "COc1ccc(/C=C/c2cc(O)cc(O)c2)cc1", "note": "[desoxyrhapontigenin]", "values": [{"measurement": "effect on IκBα and ERK1/2 phosphorylation", "setting": "[1]", "result": "decreasing both of IκBα and ERK1/2 phosphorylation"}, {"measurement": "effect on LPS-induced cytokine release", "setting": "[2]", "result": "inhibited LPS-induced cytokine release"}]}
{"compound": "LQTLDLRDNALTTIHFIPSIPD [URP, unrelated peptide derived from LRR14 of human TLR5, used as negative control]", "values": [{"measurement": "mean fluorescence intensity (MFI) produced by FAM-2006 within the cells", "setting": "[3]", "result": "no such effect"}, {"measurement": "effect of peptide alone on TNF-α and IL-6 release", "setting": "[4]", "result": "no influence on cytokines release"}, {"measurement": "binding response to ODN2006", "setting": "[5]", "result": "no such response"}, {"measurement": "effect of peptide alone on p65 activation", "setting": "[6]", "result": "no effect"}]}
{"compound": "kukoamine B", "values": [{"measurement": "effect on IκBα phosphorylation and NF-κB activation", "setting": "[7]", "result": "inhibitors of IκBα phosphorylation and NF-κB activation"}, {"measurement": "effect on CpG ODN-induced cytokine release", "setting": "[8]", "result": "inhibitors of CpG ODN-induced cytokine release"}, {"measurement": "effect on proinflammatory cytokines", "setting": "[8]", "result": "inhibited proinflammatory cytokines"}]}
